Here are results for one compound from patent US11136320B2, “Fused ring derivative used as FGFR4 inhibitor” (JACOBIO PHARMACEUTICALS CO., LTD., priority 2019, dated 2021).

In data set [1] the test system is Hepatoma cell Hep3B (high expression of FGFR4 and FGF19). Kind of data set: Hepatoma cell proliferation inhibition experiment (MTS method). The format is cell-based.
A further data set in a line: PK analysis of rats. The format is in vivo. Conditions: SD rats, p.o. (10 mg/kg).
A short description of data set [2]: PK/PD of NOD-SCID mouse (drug concentration in blood and in tumors). The note with it: for AUC(0-inf) / Cmax / Tmax / half-life / AUC(0-t) / concentration at 4 h / concentration at 6 h: NOD-SCID, mouse, po, 50 mg/kg, p.o. (50 mg/kg); for AUC(0-inf) / Cmax / Tmax / half-life / AUC(0-t): plasma; for AUC(0-t): read-out: AUC0-6 h; for concentration at 4 h / concentration at 6 h: tumor. The format is in vivo. As for the experimental part:
This experiment conducted when the pharmacological experiment in vivo was performed by gavage administration, wherein, the blood samples and tumor samples were taken at different time points to detect drug concentration in blood and drug concentrations in tumors.
(1) Mode of administration: gavage administration;
(2) Dosage: 50 mg/kg in the gavage administration;
Three mice were sampled at each sampling point;
(4) Blood sample collection: 200 μL of orbital blood was collected at sampling time point for each blood sample. After anticoagulation with heparin, the blood was centrifuged at 5500 rpm for 10 mins. 60 μL of the supernatant was taken and put it into the refrigerator at −80° C. for waiting for testing.
Tumour sample collection: 200-300 mg of each tumor tissue was taken. The tumor weight was marked, quickly freezed in liquid nitrogen and placed into a refrigerator at −80° C. for waiting for testing.
Tumour sample processing: pure water was added into the tumor sample according to a ratio of […] between the weight of the tumor sample and the volume of pure water and then it was homogenized. The homogenate was stored at −90° C. to −60° C. until the sample was analyzed. After 5 μL of acetonitrile/water (v/v=1:1) was added into 50 μL of tumor sample homogenate, 200 μL of acetonitrile (containing Dexamethasone 100 ng/ml as internal standard, or containing Verapamil 2 ng/ml as internal standard) was added. After protein precipitation, the resulting mixture was vortexed for 2 mins at 4° C. with 4600 g, and then centrifuged for 15 mins to obtain the supernatant. 100 μL of the supernatant was taken and added into 200 μL of deionized water. 5500 LC/MS/MS analyser was used for sample injection and analysis, after vortexing for homogeneity. The conditions for chromatographic separation and mass spectrometric analysis were as follows: […]

The target of the next data set is FGFR4 kinase (Homo sapiens (Human), UniProt P22455). As to the kind of experiment: biochemical.
Sequence of FGFR4 kinase (P22455 22-802): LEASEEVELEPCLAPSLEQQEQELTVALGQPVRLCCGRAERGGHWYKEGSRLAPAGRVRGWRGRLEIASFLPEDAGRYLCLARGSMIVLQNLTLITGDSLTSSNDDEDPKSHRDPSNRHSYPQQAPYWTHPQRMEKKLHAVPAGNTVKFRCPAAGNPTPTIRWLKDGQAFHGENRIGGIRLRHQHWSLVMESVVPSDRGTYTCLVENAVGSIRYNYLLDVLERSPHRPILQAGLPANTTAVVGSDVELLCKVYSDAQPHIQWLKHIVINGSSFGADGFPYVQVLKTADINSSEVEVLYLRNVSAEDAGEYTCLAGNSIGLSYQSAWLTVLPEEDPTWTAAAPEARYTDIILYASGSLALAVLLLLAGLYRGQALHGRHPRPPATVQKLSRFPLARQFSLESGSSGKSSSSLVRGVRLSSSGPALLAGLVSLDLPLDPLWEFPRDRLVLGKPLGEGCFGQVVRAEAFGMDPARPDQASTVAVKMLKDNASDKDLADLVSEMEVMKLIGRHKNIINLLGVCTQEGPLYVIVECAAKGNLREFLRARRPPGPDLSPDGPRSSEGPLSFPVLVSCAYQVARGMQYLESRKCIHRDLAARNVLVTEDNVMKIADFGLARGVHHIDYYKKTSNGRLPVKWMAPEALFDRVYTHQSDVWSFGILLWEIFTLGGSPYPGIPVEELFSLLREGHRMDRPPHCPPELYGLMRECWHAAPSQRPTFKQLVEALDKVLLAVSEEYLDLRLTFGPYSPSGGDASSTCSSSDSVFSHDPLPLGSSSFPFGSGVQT

Consider `CSC[C@@H](C)Nc1cc(NC(=O)N2CCCc3cc(CN4CCN(C)CC4=O)c(C=O)nc32)ncc1C#N` [Compound 4, (R)—N-(5-Cyano-4-((1-(methylthio)propan-2-yl)amino)pyridin-2-yl)-7-formyl-6-((4-methyl-2-oxopiperazin-1-yl)methyl)-3,4-dihydro-1,8-naphthyridine-1 (2H)-carboxamide], for which, in data set [1], the “inhibitory effect on Hepatoma cell Hep3B compared with the reference compound” value is on record as “better inhibitory effect”. For the same compound, in data set [1] (Homo sapiens, Hep3B, 120 h incubation, read-out: Hep3B(IC50 μM)), the IC50 – broadly, the concentration that gives 50% inhibition – was 0.014 µM. Moreover, in “PK analysis of rats”, the “exposure amount AUC0-24 h and maximum drug concentration in blood Cmax compared with the reference compound” value is listed as “significantly higher than the reference compound”. For the same compound, the AUC(0-t) in “PK analysis of rats” (rat, plasma, po, read-out: Curve area AUC0-24 h) is 4670 ng·h/mL. For the same compound, the Cmax in the data set “PK analysis of rats” (rat, plasma, po, read-out: Drug concentration in blood Cmax) was determined as 1450 ng/mL. Moreover, the “content in tumor tissue relative to the reference compound” value in data set [2] (Hep3B model, 4 h or 6 h) is “more than 15 times”. For the same compound, in data set [2] (Hep3B model), the AUC(0-inf) (usually total exposure, with the tail of the curve extrapolated) was 3360 ng·h/mL; the Cmax was 1020 ng/mL; the time to peak (Tmax) (commonly the time at which the peak concentration occurs) stood at 2 h; the half-life (as a rule, how long it takes for the measured level to halve) is 1.48 h. In data set [2] (Hep3B model), the AUC(0-t) was 3020 ng·h/mL and the concentration at 4 h came to 1210 ng/g. Further, in data set [2] (SNU878 model), the area under the curve AUC(0-inf) amounted to 4260 ng·h/mL, the Cmax stood at 1230 ng/mL, the time to peak (Tmax) came out at 1 h and the half-life was 2.3 h. Moreover, in data set [2] (SNU878 model), the AUC(0-t) is 3530 ng·h/mL and the concentration at 4 h was 2340 ng/g. Further, in data set [2] (Hep3B model, 6 h), the concentration at 6 h is 673 ng/g. In addition, in data set [2] (SNU878 model, 6 h), the concentration at 6 h came to 1950 ng/g and the “content in tumor tissue relative to the reference compound” value is “about twice”. This compound also showed an IC50 against FGFR4 kinase of 1.4 nM.
